# Assay results: patent publication US20240108618A1, “KRAS G12C INHIBITOR DOSING REGIMENS” (Eli Lilly and Company, priority 2022, published 2024)
# Values joined by “and” are separate entries in the source; they are usually repeats but may differ in a detail not shown here. Equal entries are not always repeated.
# Key:
# HCC44 = HCC44 (lung) xenograft model; assay type: in vivo, mouse
# Method: (§1) For xenograft models of H1373, HCC44, MiaPaca-2, SW1463, SW837, KYSE-410 and UM-UC-3, typically 5-10×10^6 cells in a 1:1 matrigel mix (0.2 mL total volume) are implanted by subcutaneous injection in hind leg of nude mice. […] Treatment is initiated with oral administration (gavage) of testing compound or vehicle (20% captisol, 25 mM phosphate, pH2.0) in 0.2 mL volume when tumor size reaches approximately 200-300 mg. Tumor growth and body weight are monitored over time to evaluate efficacy and signs of toxicity. For EL3187 PDX model, frozen vials containing tumor fragments are thawed at 37° C. in a water bath. The tumor fragments are transferred to 50 mL Falcon tube and the ice cold DMEM medium is slowly added into the tube to a total volume of 35 mL. Then the tumor fragments are centrifuged at 130×g for 2 minutes at 4° C. and supernatant is aspirated. This washing step is repeated twice and the tumor fragments are resuspended in 10 mL DMEM for implantation into athymic nude-Foxn1nu mice (Envigo RMS, Inc., Mount Comfort, Indiana). Once tumor volumes reach 800 to 1000 mm^3, animals are sacrificed and tumors are harvested using aseptic technique. Fresh tumors are cut into 10 to 15 mm^3 fragments and placed into cold Gibco hibernate medium. The tumor fragments are subcutaneously implanted into animals with a 10 g trochar needle. When tumor size reaches 200 to 300 mm^3, the animals are randomized for compound treatment.
# (§2) Among models listed in Table 2, EL3187 is a patient-derived xenograft (PDX) model, and all other are tumor xenograft models.
# EL3187 = EL3187 (lung) patient-derived xenograft (PDX) model; assay type: in vivo, mouse
# Method: as §1, §2
# [1] = NCT04956640 Phase 1a monotherapy safety: treatment-emergent adverse events; details: in vivo
# Text: (§3) A “DLT” is defined as any of the treatment-emergent adverse event (TEAEs), as defined by the National Cancer Institute's Common Terminology Criteria for Adverse Events, version 5.0 (NCI CTCAE v5.0), deemed clinically significant and occurring during the first 21 days of study drug per dose level per patient, unless the adverse event (AE) can be clearly related to the patient's underlying disease, other medical condition, or concomitant medications including any AEs attributed by the Investigator to the combination agent alone. A TEAE is defined as an AE that starts or worsens on or after the date of the first dose of study drug (for example on Study Day 1) through 28 days (+14 days window) after the date of the last dose of study drug or the first date starting new anticancer therapy, whichever is earlier. A Serious TEAE is defined as an TEAE that is grade 3 or higher based on severity grade assignment as defined by the National Cancer Institute's Common Terminology Criteria for Adverse Events, version 5.0 (NCI CTCAE v5.0). A Fatal TEAE is defined as an TEAE that is grade 5 based on severity grade assignment as defined by the National Cancer Institute's Common Terminology Criteria for Adverse Events, version 5.0 (NCI CTCAE v5.0). […]
# [2] = NCT04956640 Phase 1b Cohort C2 (with cetuximab) safety: treatment-emergent adverse events
# Text: as §3
# [3] = test system: KRAS G12C-mutant advanced CRC; assay: NCT04956640 Phase 1b Cohort C2 (with cetuximab) clinical response (BOR, ORR, DCR, DOR, TTR, % change from baseline, treatment duration); assay type: in vivo, human; parameters: key to Best Response: CR: complete response; PR: partial response; uPR: a partial response pending confirmation; SD: stable disease; PD: progressive disease; NE: not estimable; details: for Duration of response (DOR) <6 months / Overall response status: Censored / Reason censored: Alive without documented disease progression / Time to response (TTR) <2 months: Phase 1b Cohort C2 responders
# Method: The term “BOR” as used herein refers to best overall response based on investigator assessments using RECIST criteria (version 1.1). The minimum duration for BOR of SD is at least 6 weeks after the date of first dose of study drug.
# The term “DOR” as used herein refers to duration of response, wherein DOR in months is calculated as the event or censoring date minus the response start date plus 1 day divided by 30.4375.
# The term “ORR” as used herein refers to objective response rate, wherein objective response rate is the proportion of patients with BOR of CR or PR. Objective response rate, unconfirmed, is the proportion of patients with BOR of CR, PR, or uPR.
# The term “TTR” as used herein refers to time to response, wherein TTR in months is calculated as response start date minus first dose date plus 1 day divided by 30.4375.
# NCT04956640 includes Phase 1a dose escalation (Part A of NCT04956640, see Table 3) followed by a Phase 1b dose expansion (Parts B to E of NCT04956640, see Table 4). […] Phase 1b dose expansion will include 12 cohorts (See Table 4) to further evaluate safety and clinical activity.
# [4] = Phase 1b Cohort C2, Total (N = 11)
# [5] = Phase 1b Cohort C2, individual patients, starting dose 100 BID, no prior KRAS G12Ci, listed as compound of Formula I
# [6] = Phase 1b Cohort C2, individual patients, starting dose 150 BID, no prior KRAS G12Ci, listed as compound of Formula I
# [7] = Phase 1b Cohort C2, starting dose 100 mg BID (N = 6)
# [8] = Phase 1b Cohort C2, starting dose 150 mg BID (N = 5)
# [9] = starting dose 100 mg BID (N = 6)
# [10] = starting dose 150 mg BID (N = 5)
smiles,measurement,setting,value
"C=CC(=O)N1CCN2C(=O)c3cc(F)c(-c4ccc(F)c5sc(N)c(C#N)c45)c(Cl)c3OCC[C@H]2C1 (single isomer, unassigned) [Formula I]",tumor growth inhibition (%) or regression (− %),HCC44; 5 mg/kg BID x28,57.5%
same,tumor growth inhibition (%) or regression (− %),HCC44; 5 mg/kg QD x28,28.3%
same,tumor growth inhibition (%) or regression (− %),HCC44; 10 mg/kg BID x28,61.8%
same,tumor growth inhibition (%) or regression (− %),HCC44; 10 mg/kg QD x28,32.7%
same,tumor growth inhibition (%) or regression (− %),HCC44; 30 mg/kg BID x28,84.1%
same,tumor growth inhibition (%) or regression (− %),HCC44; 30 mg/kg QD x28,77%
same,tumor growth inhibition (%) or regression (− %),EL3187; 1 mg/kg BID x28,89.2%
same,tumor growth inhibition (%) or regression (− %),EL3187; 1 mg/kg QD x28,52%
same,tumor growth inhibition (%) or regression (− %),EL3187; 3 mg/kg BID x28,−91%
same,tumor growth inhibition (%) or regression (− %),EL3187; 3 mg/kg QD x28,−39.8%
same,tumor growth inhibition (%) or regression (− %),EL3187; 10 mg/kg BID x28,−96%
same,tumor growth inhibition (%) or regression (− %),EL3187; 10 mg/kg QD x28,−96%
same,tolerability,[1],well tolerated
same,DLT,[2]; 100 mg BID,"One DLT, a grade 3 ALT/AST ratio increase"
same,permanent discontinuation due to TRAEs,[2]; in vivo,No Phase 1b Cohort C2 patient permanently discontinued
same,Best overall response (BOR): Complete Response (CR),[3]; [4],0 (0.0) n (%)
same,Best overall response (BOR): Not Evaluable (NE),[3]; [4],0 (0.0) n (%)
same,Best overall response (BOR): Partial Response (PR),[3]; [4],3 (27.3) n (%)
same,"Best overall response (BOR): Partial Response, pending confirmation and ongoing (uPR)",[3]; [4],2 (18.2) n (%)
same,Best overall response (BOR): Progressive Disease (PD),[3]; [4],0 (0.0) n (%)
same,"Disease control rate (CR + PR + iPR + SD), Number of patients",[3]; [4],11 (100.0) n (%)
same,"Objective response rate (CR + PR), Number of patients",[3]; [4],3 (27.3) n (%)
same,"Objective response rate, confirmed and unconfirmed (CR + PR + uPR), Number of patients",[3]; [4],5 (45.5) n (%)
same,Patients with best overall response of CR or PR,[3]; [4],3 (27.3) N′ (%)
same,"Time to response (months), Interquartile range",[3]; [4],0.33 months
same,"Time to response (months), Median",[3]; [4],1.31 months
same,Time (months) of Progressive Disease,"[3]; Phase 1b Cohort C2, individual patients, starting dose 100 BID, no prior KRAS G12Ci",4.4 months
same,% Change from Baseline in Sum of Diameters for all Target Lesions,[3]; [5],−22.0% and −23.4% and −38.9% and −48.7% and −55.4% and −67.6%
same,Best Response,[3]; [5],SD (3×) and PR Confirmed (3×)
same,Time (months) of Partial Response - Confirmed,[3]; [5],1.3 months and 1.6 months and 1.2 months
same,% Change from Baseline in Sum of Diameters for all Target Lesions,[3]; [6],−13.6% and −19.4% and −36.7% and −45.7% and −5.7%
same,Best Response,[3]; [6],SD (3×) and PR Pending (2×)
same,Time (months) of Partial Response - Pending Confirmation and Ongoing,[3]; [6],2.1 months and 1.4 months
same,Best overall response (BOR): Complete Response (CR),[3]; [7],0 (0.0) n (%)
same,Best overall response (BOR): Not Evaluable (NE),[3]; [7],0 (0.0) n (%)
same,Best overall response (BOR): Partial Response (PR),[3]; [7],3 (50.0) n (%)
same,"Best overall response (BOR): Partial Response, pending confirmation and ongoing (uPR)",[3]; [7],0 (0.0) n (%)
same,Best overall response (BOR): Progressive Disease (PD),[3]; [7],0 (0.0) n (%)
same,"Disease control rate (CR + PR + iPR + SD), Number of patients",[3]; [7],6 (100.0) n (%)
same,"Objective response rate (CR + PR), Number of patients",[3]; [7],3 (50.0) n (%)
same,"Objective response rate, confirmed and unconfirmed (CR + PR + uPR), Number of patients",[3]; [7],3 (50.0) n (%)
same,Patients with best overall response of CR or PR,[3]; [7],3 (50.0) N′ (%)
same,"Time to response (months), Interquartile range",[3]; [7],0.33 months
same,"Time to response (months), Median",[3]; [7],1.31 months
same,Best overall response (BOR): Complete Response (CR),[3]; [8],0 (0.0) n (%)
same,Best overall response (BOR): Not Evaluable (NE),[3]; [8],0 (0.0) n (%)
same,Best overall response (BOR): Partial Response (PR),[3]; [8],0 (0.0) n (%)
same,"Best overall response (BOR): Partial Response, pending confirmation and ongoing (uPR)",[3]; [8],2 (40.0) n (%)
same,Best overall response (BOR): Progressive Disease (PD),[3]; [8],0 (0.0) n (%)
same,"Disease control rate (CR + PR + iPR + SD), Number of patients",[3]; [8],5 (100.0) n (%)
same,"Objective response rate (CR + PR), Number of patients",[3]; [8],0 (0.0) n (%)
same,"Objective response rate, confirmed and unconfirmed (CR + PR + uPR), Number of patients",[3]; [8],2 (40.0) n (%)
same,Patients with best overall response of CR or PR,[3]; [8],0 (0.0) N′ (%)
same,Duration of response (DOR) <6 months,[3]; Total (N = 11),3 (100.0) n (%)
same,Overall response status: Censored,[3]; Total (N = 11),3 (100.0) n (%)
same,Reason censored: Alive without documented disease progression,[3]; Total (N = 11),3 (100.0) n (%)
same,Time to response (TTR) <2 months,[3]; Total (N = 11),3 (100.0) n (%)
same,Duration of response (DOR) <6 months,[3]; [9],3 (100.0) n (%)
same,Overall response status: Censored,[3]; [9],3 (100.0) n (%)
same,Reason censored: Alive without documented disease progression,[3]; [9],3 (100.0) n (%)
same,Time to response (TTR) <2 months,[3]; [9],3 (100.0) n (%)
same,Duration of response (DOR) <6 months,[3]; [10],0 (NE) n (%)
same,Overall response status: Censored,[3]; [10],0 (NE) n (%)
same,Reason censored: Alive without documented disease progression,[3]; [10],0 (NE) n (%)
same,Time to response (TTR) <2 months,[3]; [10],0 (NE) n (%)
same,median time to response,"[3]; human, in vivo",1.3 month
